For data set [1], the system named is microvascular endothelial bEND3 cells. The experiment in a line: NO production by endothelial cells, nitrite content in supernatant. The conditions noted are these: preincubation 24 hours; for acetylcholine-induced nitrite production: 5-methyltetrahydrofolic acid 1 and 10 μM, sepiapterin 100 μM, p<0.05 vs. saline. Format: cell-based. The procedure:
The NO production by endothelial cells was assessed by quantification of the nitrite content in the supernatant with a commercially available fluorimetric kit (Cayman Chemicals). Acetylcholine-induced NO production is presented as the difference between stimulated minus the unstimulated nitrite content.

The target in data set [2] is T1, eNOS (Bos taurus, UniProt P29473). The experiment in a line: Superoxide production by eNOS, DEPMPO spin trap EPR.
Data set [3] in a line: Competitive superoxide trapping (CST) with DEPMPO in HX/XO system, EPR. Format: biochemical. The following applies: for k/kd, reaction rate with superoxide relative to reference spin trap DEPMPO / k, reaction rate with superoxide: pH 7.4, 37° C.; for k, reaction rate with superoxide: based on kd=80 (Ms)^−1; for superoxide scavenging, times less potent/slower than ascorbic acid: relative to ascorbic acid. The procedure:
The EPR spectra were recorded at 37° C. on a modified Bruker ESP 300. Spin trap experiments were performed with both HX/XO and eNOS. For HX/XO the solution contained 0.5 mM hypoxanthine, 12.5 mU/ml xanthine oxidase and 50 mM DEPMPO in phosphate buffer (pH 7.4). The eNOS assay contained 250 nM eNOS dimers (0.065 mg protein/ml), 0.5 mM NADPH, 10 μM L-arginine, 1 mM CaCl2, 300 U/ml catmodulin and 50 mM DEPMPO in phosphate buffer (pH 7.4).
The reaction rates with superoxide are given by k for the tested substance and kd for the reference compound DEPMPO respectively.

For data set [4], the target named is T1, eNOS. The experiment in a line: NO-production by eNOS, [3H]arginine to [3H]citrulline conversion. On the set-up: made in house; host or cells: E. coli. The following applies: 100 μM final. Format: biochemical, bovine. The procedure:
5-methyl-(6 S)-tetrahydrofolic acid, and its stereoisomer, 5-methyl-(6R)-tetrahydrofolic acid were used in purities>99.8%. The spin trap, 5-diethoxy-phosphoryl-5-methyl-1-pyrroline-N-oxide (DEPMPO) and all other used chemicals are commercially available.
NOS activity was determined by quantifying the conversion of L-[2,3,4.5-^3H]arginine into L-[2,3,4,5-^3H]-citrulline. […] All measurements were performed in triplicate. After correction for nonspecific activity, eNOS activity was calculated from the percent conversion of [^3H]-arginine into [^3H]-citrulline and expressed as nmoles per mg protein per min.

Another data set has as its target xanthine oxidase (XO) (Homo sapiens, UniProt P47989). From the text:
Assessment of urate levels (assessed with a uricase-hydrogen peroxide assay) is a standard method to determine enzymatic activity of XO. However, reductive substance, like vitamin C or NUHF, are known to interfere with the urate determination.

For data set [5] the following is noted: cited from earlier work.
The conditions of data set [6]: cited from earlier work. The source holds these as a separate data set.
Where [7] appears, read: pterin-repleted eNOS, p<0.05 vs. BH4 alone.

The structures appear in SMILES notation. Where two headings read alike, the source gives them in different places. Some results are limits rather than exact numbers.

Chain of xanthine oxidase (XO) (P47989 whole entry, species assumed): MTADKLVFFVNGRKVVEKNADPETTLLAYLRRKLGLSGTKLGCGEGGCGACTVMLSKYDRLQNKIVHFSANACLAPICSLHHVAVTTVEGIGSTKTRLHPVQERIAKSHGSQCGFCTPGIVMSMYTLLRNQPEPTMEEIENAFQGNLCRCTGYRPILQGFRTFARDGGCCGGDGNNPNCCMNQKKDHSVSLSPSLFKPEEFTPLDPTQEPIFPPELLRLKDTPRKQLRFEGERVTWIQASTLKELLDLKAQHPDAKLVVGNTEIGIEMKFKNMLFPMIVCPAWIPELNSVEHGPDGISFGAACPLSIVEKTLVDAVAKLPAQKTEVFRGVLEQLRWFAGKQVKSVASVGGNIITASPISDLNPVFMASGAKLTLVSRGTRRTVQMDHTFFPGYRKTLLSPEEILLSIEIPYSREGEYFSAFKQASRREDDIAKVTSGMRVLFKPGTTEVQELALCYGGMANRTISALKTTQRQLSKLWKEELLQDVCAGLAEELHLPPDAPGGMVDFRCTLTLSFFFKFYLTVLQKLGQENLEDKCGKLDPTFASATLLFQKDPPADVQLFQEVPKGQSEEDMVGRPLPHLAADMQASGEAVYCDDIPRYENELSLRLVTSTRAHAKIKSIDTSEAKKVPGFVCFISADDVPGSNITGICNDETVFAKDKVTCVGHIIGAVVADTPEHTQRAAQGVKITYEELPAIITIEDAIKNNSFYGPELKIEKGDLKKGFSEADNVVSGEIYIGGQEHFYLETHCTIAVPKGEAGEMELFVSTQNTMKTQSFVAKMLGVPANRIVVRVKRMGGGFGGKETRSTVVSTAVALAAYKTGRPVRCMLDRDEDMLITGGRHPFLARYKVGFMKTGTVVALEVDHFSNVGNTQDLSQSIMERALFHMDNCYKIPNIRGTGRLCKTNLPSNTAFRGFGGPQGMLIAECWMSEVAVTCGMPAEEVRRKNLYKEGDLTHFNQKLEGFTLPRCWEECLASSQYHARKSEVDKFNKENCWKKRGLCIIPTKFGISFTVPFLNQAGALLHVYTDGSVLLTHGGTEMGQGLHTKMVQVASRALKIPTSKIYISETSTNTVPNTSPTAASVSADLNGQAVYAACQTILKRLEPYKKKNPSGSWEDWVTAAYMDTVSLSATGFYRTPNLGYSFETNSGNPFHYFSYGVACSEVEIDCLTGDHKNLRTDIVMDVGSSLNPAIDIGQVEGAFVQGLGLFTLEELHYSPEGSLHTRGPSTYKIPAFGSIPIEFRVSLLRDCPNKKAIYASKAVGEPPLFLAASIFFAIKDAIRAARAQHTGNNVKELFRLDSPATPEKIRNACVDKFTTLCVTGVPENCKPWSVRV

Regarding `CN1c2c(nc(N)[nH]c2=O)NC[C@@H]1CNc1ccc(C(=O)N[C@@H](CCC(=O)O)C(=O)O)cc1` [5-methyl-(6 S)-tetrahydrofolic acid], the acetylcholine-induced nitrite production entry in data set [1] is recorded as “significant-further increase in acetylcholine-induced nitrite production”. Further, the “effect on rate of superoxide production by pterin-free eNOS” value on eNOS [2] (pterin-free eNOS) is “does not affect the rate of superoxide production”. The radical adduct formation result at eNOS [2] (pterin-free eNOS, 25 μM) is “does not cause significant changes in radical adduct formation”. The “rate of DEPMPO adduct formation” value on eNOS [2] (pterin-repleted eNOS) is “very strong reduction in the rate of DEPMPO adduct formation”. The “k/kd, reaction rate with superoxide relative to reference spin trap DEPMPO” value is reported as “about 175” in data set [3] (HX/XO) and 150 in data set [3] (HX/XO, listed as L-MTHF). The “k, reaction rate with superoxide” value in data set [3] was determined as 12000 M/s. Also, the “superoxide scavenging, times less potent/slower than ascorbic acid” value in data set [3] was “about 20 fold”. Moreover, the NO production result on eNOS [4] (pterin-free eNOS) is “no significant effect on NO production”; at eNOS [4] (setting [7]), “significant increase in NO production”. Moreover, the “urate level after 60 minutes of incubation” value came out at 48.7 ± 1.7 µM on xanthine oxidase (XO) (50 μM added at the beginning of the incubation, basal 128±20 μM) and 49.9 ± 1.9 µM on xanthine oxidase (XO) (50 μM added at the end of the incubation, just prior to urate assessment).
As for `CN1c2c(nc(N)[nH]c2=O)NC[C@H]1CNc1ccc(C(=O)N[C@@H](CCC(=O)O)C(=O)O)cc1` [5-methyl-(6R)-tetrahydrofolic acid], the “effect on rate of superoxide production by pterin-free eNOS” value on eNOS [2] (pterin-free eNOS) is given as “does not affect the rate of superoxide production”. In addition, on eNOS [2] (pterin-repleted eNOS), the “rate of DEPMPO adduct formation” value is “very strong reduction in the rate of DEPMPO adduct formation”. For the same molecule, the “k/kd, reaction rate with superoxide relative to reference spin trap DEPMPO” value in data set [3] (HX/XO) is on record as “about 175”; in data set [3] (HX/XO, listed as D-MTHF) it was 150. Moreover, in data set [3], the “k, reaction rate with superoxide” value came to 12000 M/s. The “superoxide scavenging, times less potent/slower than ascorbic acid” value in data set [3] is given as “about 20 fold”. The NO production entry at eNOS [4] (pterin-free eNOS) is “no significant effect on NO production”; on eNOS [4] (setting [7]) it was “significant increase in NO production”.
On to `CN1c2c(nc(N)[nH]c2=O)NCC1CNc1ccc(C(=O)N[C@@H](CCC(=O)O)C(=O)O)cc1` (stereo partly shown) [5-methyltetrahydrofolic acid, 5-methyl-5,6,7,8-tetrahydrofolic acid], for which, in data set [1] (unstimulated endothelial cells), the nitrite release result was “did not affect nitrite release”. Moreover, the “amount of superoxide adducts” value at eNOS [2] (partially BH4-repleted eNOS, 25 μM) was “substantial reduction in the amount of superoxide adducts”. Moreover, at eNOS [2] (pterin-repleted eNOS, 50 μM, estimated from figure), the “factor by which superoxide production by eNOS is reduced” value is listed as 2 fold. For the same molecule, the “superoxide scavenging, times less potent/slower than ascorbic acid” value in data set [3] is “about 20 fold”. The “systemic plasma concentrations of 5-methyltetrahydrofolic acid” value in data set [5] (intra-arterial infusion) is 250 nM. For the same molecule, on xanthine oxidase (XO), the “effect on rate of urate production by XO” value is “does not affect the rate of urate production”.
Consider `N=C(N)NCCC[C@H](N)C(=O)O` [arginine, L-arginine], for which the “k/kd, reaction rate with superoxide relative to reference spin trap DEPMPO” value in data set [3] (HX/XO) was < 10^−2. Further, the “effect on formation of DEPMPO adducts” value in data set [3] (HX/XO, up to 100 mM) is on record as “did not affect the formation of DEPMPO adducts”. The “k, reaction rate with superoxide” value in data set [3] is listed as “neglibile”.
With `O=C1O[C@H]([C@@H](O)CO)C(O)=C1O` [ascorbic acid, reference compound], the “k/kd, reaction rate with superoxide relative to reference spin trap DEPMPO” value in data set [3] (HX/XO) turned out to be 4400. Moreover, the “k, reaction rate with superoxide” value in data set [3] amounted to 350000 M/s. For the same molecule, the “k, reaction rate with superoxide, literature value” in data set [6] was 270000 M/s.
On to `Nc1nc2ncc(CNc3ccc(C(=O)N[C@@H](CCC(=O)O)C(=O)O)cc3)nc2c(=O)[nH]1` [folic acid, reference compound], for which the “systemic plasma concentrations of 5-methyltetrahydrofolic acid” value in data set [5] (standard oral suppletion of folic acid 5 mg p.o.) is on record as ≤ 150 nM.
In the case of `C[C@H](O)C(=O)C1=Nc2c(nc(N)[nH]c2=O)NC1` [sepiapterin, reference compound], the acetylcholine-induced nitrite production result in data set [1] is “significant-further increase in acetylcholine-induced nitrite production”.

Source of the values: patent US6544994B2, “Pharmaceutical preparation for treating or preventing cardiovascular or neurological disorders by modulating of the activity of nitric oxide synthase” (Eprov AG, priority 2000, dated 2003).
